{"source": "patent US10238111B2", "about": "“Fungicidal compositions” (Dow AgroSciences LLC, priority 2014, dated 2019)", "format_in_all_cases": "physicochemical", "key": {"[1]": {"assay": "Accelerated storage stability of Compound A in liquid compositions, 2 weeks at 54° C. (HPLC)", "experimental": "The test compositions were prepared in a manner similar to that described in Example 1 using one or more of Compound A, prothioconazole, pyraclostrobin, benzyl acetate, and AMD 810, and a third solvent chosen from cyclohexanone, acetophenone, 2-heptanone, 2-heptanal, oleyl alcohol or 2-ethylhexanol."}, "[2]": {"assay": "Approximate (relative) solubility of active ingredients in organic solvents at ambient temperature", "details": "0.2 g Compound A mixed with 1.38 g cyclohexanone", "experimental": "The approximate solubility of Compound A was determined by mixing a known mass of the active ingredient with an increasing mass of each solvent at ambient temperature. […] The solubility of Compound A in the solvents used in this screening procedure was generally classified within the following concentration ranges: […]"}, "[3]": {"assay": "Solubility of Compound A and prothioconazole in benzyl acetate/AMD810 blends at 10° C. (HPLC)", "details": "both actives saturated", "experimental": "A study of the Compound A and prothioconazole solubility in blends of benzyl acetate/AMD810 was conducted. To each solvent blend both actives were added until each was saturated and the resulting mixtures were then stored at 10° C. until equilibrium was obtained. Aliquots of the supernatant layer were taken from each sample, filtered (0.45 μm mesh) and analyzed by HPLC to determine the solution concentration of each active in the blends."}}}
{"smiles": "COc1ccnc(C(=O)N[C@H]2COC(=O)[C@H](Cc3ccccc3)[C@@H](OC(=O)C(C)C)[C@H](C)OC2=O)c1OCOC(=O)C(C)C", "note": "[Compound A, propanoic acid, 2-methyl-, [[4-methoxy-2-[[[(3S,7R,8R,9S)-9-methyl-8-(2-methyl-1-oxopropoxy)-2,6-dioxo-7-(phenylmethyl)-1,5-dioxonan-3-yl]amino]carbonyl]-3-pyridinyl]oxy]methyl ester]", "values": [{"measurement": "Compound A after Storage (% retention)", "setting": "[1]; wt %: Compound A 3.4, AMD 810 96.0, third solvent none", "result": "49^ % retention"}, {"measurement": "Compound A after Storage (% retention)", "setting": "[1]; wt %: Compound A 4.9, benzyl acetate 94.1, third solvent none", "result": "85^ % retention"}, {"measurement": "Compound A after Storage (% retention)", "setting": "[1]; wt %: Compound A 12.0, cyclohexanone 85.7", "result": "96^ % retention"}, {"measurement": "clear solution comprising Compound A", "setting": "[2]", "result": 12.6, "unit": "% w/w"}, {"measurement": "Compound A Solubility at 10° C.", "setting": "[3]; benzyl acetate to AMD810 in blend 0 wt %", "result": 3.3, "unit": "% w/w"}, {"measurement": "Compound A Solubility at 10° C.", "setting": "[3]; benzyl acetate to AMD810 in blend 20 wt %", "result": 4.3, "unit": "% w/w"}, {"measurement": "Compound A Solubility at 10° C.", "setting": "[3]; benzyl acetate to AMD810 in blend 40 wt %", "result": 6.5, "unit": "% w/w"}, {"measurement": "Compound A Solubility at 10° C.", "setting": "[3]; benzyl acetate to AMD810 in blend 60 wt %", "result": 11.0, "unit": "% w/w"}, {"measurement": "Compound A Solubility at 10° C.", "setting": "[3]; benzyl acetate to AMD810 in blend 80 wt %", "result": 12.0, "unit": "% w/w"}]}
